In brackets after ≈: the same amount, converted by molar mass. Where two headings read alike, the source gives them in different places.
Tests used:
HIV-1Ba-L = assay: PBMC antiviral assay, HIV-1Ba-L; type: cell-based; settings: human PBMCs
Procedure: (§1) Compounds SA-101A and SA-101B were tested for antiviral activity against HIV-1 in peripheral blood mononuclear cells (PBMC) acutely infected with the HIV-1 isolates. PBMCs were derived from normal HIV-1 negative donors, and cultured under conditions which promote cell survival and HIV replication. Fresh human blood was obtained commercially from Biological Specialty Corporation (Colmar, Pa.). The low passage clinical isolates HIV-1Ba-L, HIVIIIB, and SIVmac251 were from the NIAID AIDS Research and Reference Reagent Program. Immediately before use, pre-titered aliquot of the viruses were removed from storage in a freezer (−80° C.) and thawed rapidly to room temperature in a biological safety cabinet. Phytohemagglutinin (PHA-P) was obtained from Sigma (St. Louis, Mo.) and recombinant IL-2 was obtained from R&D Systems Inc. (Minneapolis, Minn.). Antiviral activity was tested from a high-test concentration of 100 μM or 100 μg/ml with nine ½-log serial dilutions of the compound to derive applicable IC50 (concentration inhibition virus replication by 50%), IC90 (concentration inhibition virus replication by 90%), TC50 (concentration decreasing cell viability by 50%) and TI (therapeutic index: TC50/IC50) values.
Preparation of PMBC. Fresh Human PBMCs, Seronegative for HIV and HBV, were isolated from screened donors (Interstate Blood Bank, Inc. Memphis, Tenn.). Cells were pelleted/washed 2-3 times by low speed centrifugation and resuspensded in PBS to remove contaminating platelets. The leukophoresed blood was then diluted 1:1 with Dulbecco's Phosphate Buffered Saline (DPBS) and layered over 14 mL of Lymphocyte Separation Medium (LSM; Cellgro® by Mediatech, Inc.; density 1.078+/−0.002 g/ml; Cat. # 85-072-CL) in a 50 mL centrifuge tube and then centrifuged for 30 minutes at 600×g. Banded PBMCs were gently aspirated from the resulting interface and subsequently washed 2× with PBS by low speed centrifugation. After the final wash, cells were enumerated by trypan blue exclusion and re-suspended at 1×10^7 cells/mL in RPMI 1640 supplemented with 15% Fetal Bovine Serum (FBS), and 2 mM L-glutamine, 4 μg/mL Phytohemagglutinin (PHA-P, Sigma). The cells were allowed to incubate for 48-72 hours at 37° C. After incubation, PBMCs were centrifuged and re-suspended in RPMI 1640 with 15% FBS, 2 mM L-glutamine, 100 U/mL penicillin, 100 μg/mL streptomycin, 10 μg/mL gentamycin, and 20 U/mL recombinant human IL-2 (R&D Systems, Inc). […]
(§2) PMBC assay. […] Pooling (mixing) of mononuclear cells from more than one donor is used to minimize the variability observed between individual donors, which results from quantitative and qualitative differences in HIV infection and overall response to the PHA and IL-2 of primary lymphocyte populations. […]

SIVMac251 = assay: PBMC antiviral assay, SIVMac251; type: cell-based, SIV; settings: SIVMac251, human PBMCs
Procedure: as §1
Preparation of PMBC. Fresh Human PBMCs, Seronegative for HIV and HBV, were isolated from screened donors (Interstate Blood Bank, Inc. Memphis, Tenn.). Cells were pelleted/washed 2-3 times by low speed centrifugation and resuspensded in PBS to remove contaminating platelets. The leukophoresed blood was then diluted 1:1 with Dulbecco's Phosphate Buffered Saline (DPBS) and layered over 14 mL of Lymphocyte Separation Medium (LSM; Cellgro® by Mediatech, Inc.; density 1.078+/−0.002 g/ml; Cat. # 85-072-CL) in a 50 mL centrifuge tube and then centrifuged for 30 minutes at 600×g. […]
as §2

Human PBMCs = assay: MTS staining for PBMC viability (cytotoxicity); type: cell-based; settings: for Cytotoxicity: at the concentrations evaluated
Procedure: PMBC assay. For the standard PBMC assay, PHA-P stimulated cells from at least two normal donors were pooled (mixed together), diluted in fresh medium to a final concentration of 1×10^6 cells/mL, and plated in the interior wells of a 96 well round bottom microplate at 50 μL/well (5×10^4 cells/well) in a standard format developed by the Infectious Disease Research department of Southern Research Institute. Pooling (mixing) of mononuclear cells from more than one donor is used to minimize the variability observed between individual donors, which results from quantitative and qualitative differences in HIV infection and overall response to the PHA and IL-2 of primary lymphocyte populations. Each plate contains virus/cell control wells (cells plus virus), experimental wells (drug plus cells plus virus) and compound control wells ([…], necessary for MTS monitoring of cytotoxicity). Since HIV-1 is not cytopathic to PBMCs, this allows the use of the same assay plate for both antiviral activity and cytotoxicity measurements. Test drug dilutions were prepared at a 2× concentration in microtiter tubes and 100 μL of each concentration was placed in appropriate wells using the standard format. 50 μL of a predetermined dilution of virus stock was placed in each test well (final MOI˜0.1). The PBMC cultures were maintained for seven days following infection at 37° C., 5% CO2. After this period, cell-free supernatant samples were collected for analysis of reverse transcriptase activity and/or HIV p24 content. Following removal of supernatant samples, compound cytotoxicity was measured by addition of MTS to the plates for determination of cell viability. Wells were also examined microscopically and any abnormalities were noted.
MTS staining for PBMC viability to measure cytotoxicity. At assay termination, assay plates were stained with the soluble tetrazolium-based dye MTS (CellTiter 96 Reagent, Promega) to determine cell viability and quantify compound toxicity. The mitochondrial enzymes of metabolically active cells metabolize MTS to yield a soluble formazan product. This allows the rapid quantitative analysis of cell viability and compound cytotoxicity. […] At termination of the assay, 20 μL of MTS reagent was added per well. The microtiter plates were then incubated 4 6 hrs at 37° C. The incubation intervals were chosen based on empirically determined times for optimal dye reduction. Adhesive plate sealers were used in place of the lids, the sealed plate was inverted several times to mix the soluble formazan product and the plate was read spectrophotometrically at 490/650 ηm with a Molecular Devices Vmax or SpectraMaxPlus plate reader.
Data analysis. Using an in-house computer program, IC50 (50%, inhibition of virus replication), IC90 (90%, inhibition of virus replication), IC95 (95%, inhibition of virus replication), TC50 (50% reduction in cell viability), TC90 (90% reduction in cell viability), TC95 (95% reduction in cell viability), and a therapeutic index (TI=TC50/IC50) were determined. AZT (nucleoside reverse transcriptase inhibitor) was used as a positive control antiviral compound.

[1] = test system: HIV-1 isolates Ba-L and IIIB and the SIV isolate mac251; assay: PBMC-based assay, summary over all three isolates; type: cell-based; settings: read-out: IC50 values against all three isolates
Procedure: as §1, with “Antiviral activity was tested from a high-test concentration of 100 μM or 100 μg/ml with nine ½-log serial dilutions of the compound to derive applicable IC50 (concentration inhibition virus replication by 50%), IC90 (concentration inhibition virus replication by 90%), TC50 (concentration decreasing cell viability by 50%) and TI (therapeutic index: TC50/IC50) values.” left out
as §2

Compound	IC50 (HIV-1Ba-L; Human immunodeficiency virus 1, PBMC, read-out: IC50)	IC90 (HIV-1Ba-L; Human immunodeficiency virus 1, PBMC, read-out: IC90)	IC50 (SIVMac251; Simian immunodeficiency virus, PBMC)	IC90 (SIVMac251; Simian immunodeficiency virus, PBMC, read-out: IC90)	TC50 (Human PBMCs; HIV-1Ba-L assay plate)	TC50 (Human PBMCs; HIV-1IIIB assay plate)	TC50 (Human PBMCs; SIVMac251 assay plate)	Cytotoxicity (Human PBMCs)	IC50 [1]	IC50 (HIV-1Ba-L; 40% Human AB serum)	IC90 (HIV-1Ba-L; 40% Human AB serum)	IC90 (SIVMac251; 40% Human AB serum)	Cytotoxicity (Human PBMCs; 40% human AB serum)	TC50 (Human PBMCs; HIV-1Ba-L assay plate, 40% Human AB serum)	TC50 (Human PBMCs; HIV-1IIIB assay plate, 40% Human AB serum)	TC50 (Human PBMCs; SIVMac251 assay plate, 40% Human AB serum)
CC(=O)O[C@@]12C[C@@H](C)[C@@]3(O)[C@@H](C=C(CO)C[C@]4(O)C(=O)C(C)=C[C@@H]34)[C@@H]1C2(C)C [SA-101A, 12-deoxyphorbol 13-acetate]	0.05 µg/mL (≈ 0.128 µM)	0.39 µg/mL (≈ 0.999 µM)	0.39 µg/mL (≈ 0.999 µM)	0.9 µg/mL (≈ 2.3 µM)	>1.00 µg/mL	>1.00 µg/mL	>1.00 µg/mL	no cytotoxicity	0.05 to 0.39 µg/mL (≈ 0.128 to 0.999 µM)							
CC(=O)OC12CC(C)C3(O)C(C=C(COC(=O)CCC(=O)O)CC4(O)C(=O)C(C)=CC43)C1C2(C)C (stereo not shown) [SA-101B, Prostratin Succinate]										0.0007 µg/mL	>1.00 µg/mL	>1.00 µg/mL	no cytotoxicity	>1.00 µg/mL	>1.00 µg/mL	>1.00 µg/mL

From patent US8022103B2, “Ester prodrugs of prostratin and related phorbol compounds” (Salvia Sciences, Inc., priority 2005, dated 2011)
